Values quoted from earlier work as cited in patent US20240299430A1, “METHODS AND COMPOSITIONS FOR TREATING LONG COVID-19” (Intrinsic Medicine, Inc., priority 2021, published 2024).

What was measured:
[1] = test system: murine and human derived macrophages stimulated with LPS and various pro-inflammatory cytokines; settings: in vitro
[2] = test system: PDL1, COX2 and select chemokines, such as CCL2 (MCP1) and CCL5
[3] = test system: mouse models of rheumatoid arthritis; settings: administered orally, LPS challenge

## CC(=O)N[C@H]1C([C@H](O)[C@H](O)CO)O[C@@](O[C@@H]2C(O)[C@H](O[C@@H]3C(CO)O[C@@H](O)C(O)[C@H]3O)OC(CO)[C@@H]2O)(C(=O)O)C[C@H]1O (some centres unmarked) [3′SL, 3′-sialyllactose]
[1]
  effect on IL-1β, IL-2, IL-4, IL-6, IL-12, IFN γ or TNF-α: reductions
  extent of cytokine reduction, 3′-SL compared with 6′SL: more significant reductions
[2]
  effect on PDL1, COX2 and chemokines CCL2 (MCP1) and CCL5: reduce

## CC(=O)N[C@H]1[C@H]([C@H](O)[C@H](O)CO)O[C@@](OC[C@H]2O[C@@H](O[C@H]3[C@H](O)[C@@H](O)[C@H](O)O[C@@H]3CO)[C@H](O)[C@@H](O)[C@H]2O)(C(=O)O)C[C@@H]1O [6′SL, 6′-sialyllactose]
[1]
  effect on IL-1β, IL-2, IL-4, IL-6, IL-12, IFN γ or TNF-α: reductions

## sialyllactose
[3]
  clinical assessments of disease: benefit in clinical assessments of disease
